Data taken from US20230346905A1, “P[…] AGAINST […] ME[…] […] MEN A ANTIGEN” (GlaxosmithKline Biologicals SA, priority 2020, published 2023).
“Also recorded” adds a separate entry of the source.

Tests used:
anti-carbaMenA DP8 serum = experiment: Competitive ELISA of anti-carbaMenA DP8 serum; format: binding, BALB/c female mice
Description: (§1) Conjugates prepared as previously described from sized MenA polysaccharide with avDP8.5 and ˜15 were used as controls.
(§2) Mice received three subcutaneously (s.c.) doses (2 μg on saccharide base), two weeks apart. The neo-glycoconjugate induced an immune response at week 3, as observed by assaying the sera elicited by the conjugate against the same product coated on ELISA plates. At the serum dilutions tested no anti-CRM197 antibodies were detectable. Each of the conjugates gave antibodies recognizing the conjugated antigen and the specificity of this recognition was confirmed by competitive ELISA.

[1] = system: bactericidal anti-MenA mAb (JW-A1); experiment: Competitive ELISA with anti-MenA mAb, CPS as coating; format: binding; details: FIG. 5A
Excerpt: (FIG. 5C) Competitive SPR of binding between anti-MenA mAb and immobilized biotylinated CPS. MenA CPS and deOAc CPS were the positive controls and the beta-glucan Laminarin was the negative control in A and B. MenA CPS and fragments thereof were used as positive controls and anti-MenC mAb was flown on the chip as negative control in C.
An important prerequisite for the immunogenicity of the carba-analogues is their ability to mimic the natural MenA CPS. To investigate this property in vitro, binding of oligomers with the different length to a bactericidal anti-MenA mAb (JW-A1) in comparison to CPS and a medium length oligomer with avDP ˜15 was tested as described in Giuntini, S. et al., PLoS One, 2012, 7, e34272; Tsang, R. S. et al., Clin. Diagn. Lab. Immunol., 2005, 12, 152-156; and Reyes, F. et al., Biologicals, 2013, 41, 275-278.

anti-deOAc MenA serum = experiment: Competitive ELISA against anti-deOAc MenA serum; format: binding
Description: This corroborated the propensity of carba DP8 to anti-MenA antibody binding. The different fragments were then tested against an anti-deOAc MenA serum.

MenA CPS = experiment: Mice immunization, ELISA anti-MenA CPS IgG; format: in vivo, BALB/c mice; details: first study, Table 4
Description: as §1, §2
To test the immunogenicity of the conjugated carba DP6 and DP8 analogues with and without random acetylation, groups of eight BALB/c female mice were immunized with the neoglycoconjugates. Conjugated sized MenA polysaccharide was used as control. Mice were immunized with three subcutaneously (s.c.) doses (2 μg on saccharide base) two weeks apart. […]
All mice were housed under specific pathogen-free conditions. […] The antibody response induced by the glycoconjugates has been measured by ELISA. […] Finally, plates were incubated for 30 min at room temperature and read at 405 nm using the plate reader Spectramax 190. Sera titers were expressed as the reciprocal of sera dilution corresponding to a cut-off OD=1. […]

[2] = system: anti-MenA polyclonal serum; experiment: Competitive ELISA with anti-MenA polyclonal serum, CPS as coating; format: binding; details: serum from mice immunized with MenA-CRM197 conjugate, FIG. 5B
[3] = DSC, cited from earlier work; for Tm of the N-terminal domain: Johnson et al. 2012

Substance	inhibition of the binding of the anti-carbaMenA DP8 serum (in words) (anti-carbaMenA DP8 serum)	IC50 higher compared to the native CPS [1]	recognition of / binding to the anti-MenA mAb ([1]; competitive ELISA, non-acetylated carbaMenA oligomers as inhibitors, CPS coating)	IC50 (anti-deOAc MenA serum) [µM]	anti-MenA CPS response lower than the benchmark MenA-CRM197 conjugate (MenA CPS) [fold lower]	performance as inhibitor [2]	Tm of the N-terminal domain [3] [°C]	Tm of C-terminal domains [3] [°C]
1-O-octa-(2-Acetamido-2-deoxy-5a-carba-α-D-mannopyranosyl-1-O-phosphoryl)-6-hexyl-amine [carba DP8]	to a greater extent than its conjugated form	4 orders of magnitude	binding was observed; also recorded: clearly binding to anti-MenA antibodies	15.9	2	performed as inhibitor comparably to the deOAc CPS	–	–
wild-type v2: wild-type meningococcal fHbp variant 2 from strain 2996	–	–	–	–	–	–	≤ 40	≥ 80
wild-type v3: wild-type meningococcal fHbp variant 3 from strain M1239	–	–	–	–	–	–	≤ 60	≥ 80
